Measured values: patent publication EP3570868B1, “[…] ANTIMICROBIAL PEPTIDES AND THEIR APPLICATIONS FOR THE TREATMENT AND PREVENTION OF MUSCU[…]” (Ustav Organicke Chemie a Biochemie AV CR, v.v.i., priority 2017, dated 2018)
Square brackets hold non-standard residues; d marks the D form. Peptide text beside a SMILES is read from it. βAla = NCCC(=O)O

How the values were obtained:
[1] = tested on: Candida albicans yeast (clinical isolate Olomouc); assay: Comparison of two similar halictin peptides for biofilm formation on the implant surface (yeast pipetted into a hole between implants); format: cell-based; conditions: 3.5 mg peptide in 100 mg powder cement component; two days; implant without peptide 1.8 × 10^3
Experimental: The experiment was performed under similar conditions as described in Example 5. Here, 100 mg of the powder cement component was used to prepare a paste, which was mixed with in 3.5 mg of peptide XIII and subsequently 52 µl of liquid component. The resulting paste was thoroughly mixed and then pressed into a hole prepared in the spongy part of the bone. To a next hole in the spongy part of the same bone a paste was pressed, containing comparative peptide Hal 2/4 (3.5 mg) with the sequence H-[…]NH2, which was also prepared from 100 mg of the powder component and 52 µl of the liquid component. The third hole was filled with paste without peptide prepared from the same amount of components. The Candida albicans yeast (clinical isolate Olomouc), grown in YPG, was pipetted in the hole excavated between implants equidistant (approximately 1 cm) from each. From there, the yeast penetrated through the bone tissue and was deposited on the implant with consequent formation of biofilms.
Then the implants in closed tubes with 0.4 ml of saline were treated ultrasonically four times for three minutes with occasional shaking. This way, microbial biofilm on the surface of the implant was disrupted and microbes loosed into the physiological saline. The resulting suspension was then diluted in a decimal dilution series for culturing on agar. […]

[2] = tested on: MRSA (clin. isolate Liberec); format: cell-based, Staphylococcus aureus; conditions: 37° C for 20 h
Experimental: (§1) Gram-positive bacteria (Bacillus subtilis, Staphylococcus aureus, Staphylococcus epidermidis and Enterococcus faecalis), Gram-negative bacteria (Escherichia coli and Pseudomonas aeruginosa) and the yeast (Candida albicans) were grown to exponential phase and then were diluted with fresh medium. BHI medium (Oxoid, Great Britain) was used for Enterococcus faecalis; YPD medium containing yeast extract, peptone and glucose was used for Candida albicans and LB medium (Sigma, Czech Republic) was used for the remaining microorganisms. Then the microorganisms were added to the solutions of the tested antimicrobial peptides in LB medium in multi-well plates, so that the final peptide concentration it the wells was in the range of 0.5 to 100 µmοl.1^-1. The plates were incubated at 37° C for 20 h while being continuously shaken in a Bioscreen C (Oy Growth Curves AB Ltd., Helsinki, Finland). Absorbance was measured at 540 nm every 15 min. Antimicrobial activity (Table 2) was determined as a quantitative minimum inhibitory concentration (MIC) by observing bacterial growth in the presence of different concentrations of tested peptides. In the experiments, ca 10^5 CFU of bacteria or candida per well were used. Tetracycline in a concentration range of 0.5 - 100 µmol.1^-1 was used as a standard.
(§2) Clinical isolates of bacteria were obtained from University Hospital in Motol, Prague, Czech Republic and from Liberec Regional Hospital, Czech Republic. Methicillin resistant Staphylococcus aureus (MRSA) 6271 and Pseudomonas aeruginosa 5482 were from the Czech National Collection of Type Cultures, the National Institute of Public Health, Prague, Czech Republic. Other bacteria were from the Czech Collection of Microorganisms, Brno, Czech Republic. Candida albicans came from the Faculty of Medicine, Palacky University, Olomouc, Czech Republic. Candida tropicalis ATCC 750 and Candida glabrata DSY 565 were obtained from the Institute of Physiology, Academy of Sciences of the Czech Republic.

MRSA 6271 = format: cell-based, Staphylococcus aureus; conditions: 37° C for 20 h
Experimental: as §1, §2

[3] = tested on: MRSA (clin. isolate Motol); format: cell-based, Staphylococcus aureus; conditions: 37° C for 20 h
Experimental: as §1, §2

human red blood cells = assay: Determination of haemolytic activity; format: cell-based; conditions: human red blood cells (5% v/v), 1 h at 37 °C; concentration for lysis of 50% of erythrocytes
Experimental: The peptides in the concentrations 2-400 µmol.1^-1 were incubated with the suspension of human red blood cells (5% v/v) for 1 h at 37 °C in a physiological solution at a final volume of 0.2 ml. The samples were then centrifuged for 5 min at 250 g. The absorbance of the supernatant was determined at 540 nm. 0.2% (v/v) TRITON X100 was used as a control for 100% haemolysis. Haemolytic activity is expressed as the peptide concentration required for lysis of 50% of human erythrocytes in the assay (LC50). Table 2. Antimicrobial and haemolytic activity of I up to XIII peptides and tetracycline.

[4] = tested on: E.f. (clin. isolate Motol); format: cell-based, Enterococcus faecalis; conditions: 37° C for 20 h
Experimental: as §1, §2

[5] = tested on: S.e. (clin. isolate Motol); format: cell-based, Staphylococcus epidermidis; conditions: 37° C for 20 h
Experimental: as §1, §2

[6] = tested on: Staphylococcus aureus (MRSA 6271); assay: Eradication of the infection inside the spongy bone tissue (bone grafts, peptide in carrier); format: cell-based; conditions: carrier (200 mg) with peptide VIII (10 mg), two days
Experimental: Experiments was carried out similarly as described above using two graft bones. The suspension of Staphylococcus aureus (MRSA 6271) in LB medium (50 - 100 µl) in the concentration 10^9 CFU/ml was pipetted into two holes drilled in each bone graft. On the next day the one hole in one bone graft was filled with the carrier (200 mg) blended with peptide VIII (10 mg). The second hole was filled with carrier alone (200 mg). In the second bone graft the two holes were filled identically.
The experiments were evaluated after two days of the treatment by the comparison of the number of bacterial colonies (CFU/ml) related to the infected hole in which the peptide was released from the carrier and acted against the infection, against the number of the colonies related to the infected hole which was filled only with the carrier alone. The results of these two independent experiments which are summarized in Table 5 clearly show high efficacy of the peptide VIII. Table 5. Effect of peptide VIII on the eradication of the infection inside the spongy bone tissue Carried out in two independent experiments.

[7] = tested on: S. aureus (clin. isolate Liberec); assay: Induced osteomyelitis model in femur heads: effect of peptides released from carrier on infection in the bone graft; format: cell-based; conditions: ChronOS (200 mg), 10 mg, two days
Experimental: (§3) 3-4 holes of a diameter of 5 mm and a depth of 10 mm are drilled with a surgical spoon into a femur head under sterile conditions (spongy part of the bone in the resection site). Thereafter, this bone graft is put into a beaker of appropriate size and lined with sterile gauze squares. The gauze is moistened with sterile physiological saline to prevent drying of the bone. Then, suspension of multiplied microbes in an appropriate medium (50-100 µl) at a concentration of 10^7 to 10^9 CFU is sequentially applied to the prepared holes in the bone graft and allowed to incubate for 1-2 days. […] Beaker with the infected bone graft is covered with a sterile Petri dish. During the experiment, induced osteomyelitis models are kept protected from light at room temperature.
(§4) After the incubation, the infected holes in the bone are filled with a mixture of the local carrier, and a peptide selected from the series of peptides of formulae I to XIII or their specific enantiomers (Figure 1). For comparison, one of the holes is filled with the local carrier without peptide, or the carrier filled with antibiotic (vancomycin or gentamicin). A commercially available two-component material supplied by Synthes (Synthes GmbH, Switzerland) under the name ChronOS Inject was used as the carrier. Its solid component comprises a mixture of calcium phosphates CaHPO4.2H2O and Ca3(PO4)2 and additives, the liquid component is 0.5% (vol./vol.) solution of hyaluronic acid.
(§5) After two days, the filling is thoroughly removed with a surgical spoon and empty holes are wiped with moistened sterile cotton swab, which is then extracted into 400 µl physiological saline. The extract is diluted in a tenfold serial dilution and each diluted suspension is cultured on agar in Petri dishes; the culture is evaluated on the following day. […] The result of the peptide effect is also compared with the result of the effect of antibiotics. In some cases, microbiological examination of the bone tissue taken with a surgical spoon from a deeper area of the drilled holes is performed. […] Table 3. Evaluation of the effect of antimicrobial peptides released from the carrier on an infection in the bone graft. Effect of antimicrobial activity is expressed in the number of CFU (colony-forming units) in the infected hole after swabbing.

[8] = tested on: S. epidermidis (clin. isolate Motol); assay: as above; format: cell-based; conditions: ChronOS (300 mg); 10 mg, separate holes; two days; carrier without peptide 1,2x10^5
Experimental: as §3, §4, §5

P.a. 5482 = format: cell-based, Pseudomonas aeruginosa; conditions: 37° C for 20 h
Experimental: as §1, §2

[9] = tested on: P.a. (clin. isolate Liberec); format: cell-based, Pseudomonas aeruginosa; conditions: 37° C for 20 h
Experimental: as §1, §2

Candida albicans = format: cell-based; conditions: C.a.; 37° C for 20 h
Experimental: as §1, §2

Escherichia coli = format: cell-based; conditions: E.c.; 37° C for 20 h
Experimental: as §1, §2

Bacillus subtilis = format: cell-based; conditions: B.s.; 37° C for 20 h
Experimental: as §1, §2

[10] = tested on: MRSA (clin. isolate Motol); assay: Induced osteomyelitis model in femur heads: effect of peptides released from carrier on infection in the bone graft; format: cell-based, Staphylococcus aureus; conditions: ChronOS (200 mg); 10 mg; two days; carrier without peptide 4,8x10^6
Experimental: as §3, §4, §5

P. aeruginosa 5482 = assay: as above; format: cell-based; conditions: ChronOS (200 mg); V (9 mg); two days; carrier without peptide 1,0x10^9
Experimental: as §3, §4, §5

[11] = tested on: MRSA (clin. isolate Liberec); assay: Biofilm formation on the surface of a bone cement implant in femur heads; format: cell-based, Staphylococcus aureus; conditions: two days, cement without peptide 7,0x10^6
Experimental: The resulting elastic paste is placed into a 2 ml plastic syringe (without needle) and pressed into the infected holes in the spongy part of the bone, where it polymerizes and hardens. For comparison, other similarly infected holes are filled with cement containing only an antibiotic or antimycotic agent. For comparison, a Vancogenx® cement (Tecresa S. p. A., Italy) is used, made from a mixture of a powdered polymer component containing vancomycin and gentamicin. The mixture in an amount of 125 mg is mixed with liquid monomer (50-60 µl) and then pressed into the openings as described above. In another embodiment, the cements are applied to uninfected holes, allowed to harden, and then microbes are pipetted into the hole excavated between implants. From there they penetrate through bone tissue and settle on the implants with consequent formation of biofilms.
After two days, implants are removed with metal spikes and tweezers, mechanically cleaned from debris of bone tissue, and washed four times with physiological saline (0.5 ml) in plastic tubes to remove any residual planktonic microbes or bone cells from their surface. The implants in closed tubes with 0.4 ml saline are then sonicated four times for 3 min with occasional shaking. The of microbial biofilm on the surface of the implant is thus disrupted and microbes are loosed into the physiological saline. […]

| Compound | number of colonies from the surface of the implant [1] | Antimicrobial activity MIC [2] | Antimicrobial activity MIC (MRSA 6271) | Antimicrobial activity MIC [3] | Hemolytic activity LC50 (human red blood cells) | Antimicrobial activity MIC [4] | Antimicrobial activity MIC [5] | CFU/hole ([6]; first experiment, no peptide 1.2x10^7) | CFU/hole ([6]; second experiment, no peptide 3.6x10^6) | CFU/hole ([7]; separate holes, carrier without peptide 3,9x10^6) | CFU/hole [8] | Antimicrobial activity MIC (P.a. 5482) | Antimicrobial activity MIC [9] | Antimicrobial activity MIC (Candida albicans) | Antimicrobial activity MIC (Escherichia coli) | Antimicrobial activity MIC (Bacillus subtilis) | CFU/hole [10] | CFU/hole (P. aeruginosa 5482) | CFU/implant [11] | CFU/hole ([7]; carrier without peptide 2,0x10^6) |
| --- | --- | --- | --- | --- | --- | --- | --- | --- | --- | --- | --- | --- | --- | --- | --- | --- | --- | --- | --- | --- |
| CC[C@H](C)[C@H](NC(=O)[C@H](CCCCN)NC(=O)[C@H](CCCCN)NC(=O)[C@H](CC(C)C)NC(=O)[C@H](CC(C)C)NC(=O)[C@H](CO)NC(=O)[C@H](CCSC)NC(=O)[C@H](Cc1c[nH]c2ccccc12)NC(=O)[C@@H](N)CCCCN)C(=O)N[C@@H](CC(C)C)C(=O)N[C@@H](CCCCN)C(N)=O [Hal 4/2, reference compound] (H-KWMSLLKKILK-NH2) | 2.8 × 10^2 CFU/implant |  |  |  |  |  |  |  |  |  |  |  |  |  |  |  |  |  |  |  |
| CC[C@H](C)[C@H](NC(=O)[C@H](CCCCN)NC(=O)[C@H](CCCCN)NC(=O)[C@H](CC(C)C)NC(=O)[C@H](CC(C)C)NC(=O)[C@H](CCCCN)NC(=O)[C@@H](NC(=O)[C@H](Cc1c[nH]c2ccccc12)NC(=O)[C@H](CCCCN)NC(=O)CN)C(C)C)C(=O)N[C@@H](CC(C)C)C(=O)N[C@@H](CCCCN)C(N)=O [Peptide VIII] (H-GKWVKLLKKILK-NH2) |  | 5,0 µmol.l^-1 | 9,0 µmol.l^-1 | 10,0 µmol.l^-1 | >400 µmol/L | >100 µmol/L | 2,5 µmol.l^-1 | 0 CFU/ hole | 4.8x10^2 CFU/ hole | 0 CFU/hole | 0 in all cases CFU/hole | 3,0 µmol.l^-1 | 12,7 µmol.l^-1 | 6,3 µmol.l^-1 | 6,3 µmol.l^-1 | 2,0 µmol.l^-1 |  |  |  |  |
| CC[C@H](C)[C@H](NC(=O)[C@H](CCCCN)NC(=O)[C@H](CCCCN)NC(=O)[C@H](CC(C)C)NC(=O)[C@H](CC(C)C)NC(=O)[C@H](CCCCN)NC(=O)[C@H](CCSC)NC(=O)[C@H](Cc1c[nH]c2ccccc12)NC(=O)[C@H](CCCCN)NC(=O)CCN)C(=O)N[C@@H](CC(C)C)C(=O)N[C@@H](CCCCN)C(N)=O [Peptide V] (H-[βAla]KWMKLLKKILK-NH2) |  | 5,7 µmol.l^-1 | 11,3 µmol.l^-1 | 10,0 µmol.l^-1 | 270 µmol/L | 59,0 µmol.l^-1 | 2,8 µmol.l^-1 |  |  |  |  | 2,8 µmol.l^-1 | 7,0 µmol.l^-1 | 11,3 µmol.l^-1 | 6,8 µmol.l^-1 | 1,8 µmol.l^-1 | 4,0 CFU/hole | 2,0x10^5 CFU/hole |  |  |
| CC[C@H](C)[C@H](NC(=O)[C@H](CCCCN)NC(=O)[C@H](CCCCN)NC(=O)[C@H](CC(C)C)NC(=O)[C@H](CCSC)NC(=O)[C@H](CCCCN)NC(=O)[C@H](CCSC)NC(=O)[C@H](Cc1c[nH]c2ccccc12)NC(=O)[C@H](CCCCN)NC(=O)CN)C(=O)N[C@@H](CC(C)C)C(=O)N[C@@H](CCCCN)C(N)=O [XI] (H-GKWMKMLKKILK-NH2) |  | 10,0 µmol.l^-1 | 20,0 µmol.l^-1 | 20,0 µmol.l^-1 | >>200 µmol.l^-1 | >100 µmol/L | 3,2 µmol.l^-1 |  |  |  |  | 5,3 µmol.l^-1 | 12,7 µmol.l^-1 | 12,7 µmol.l^-1 | 20,0 µmol.l^-1 | 2,5 µmol.l^-1 |  |  | 0 CFU/implant | 2,5 x10^3 CFU/hole |
